The test system of the assay is Ascites hepatoma LY80. The experiment in a line: Oxygen partial pressure in tumor tissues of tumor-bearing rats after intra-arterial injection of the sample (phosphorescence quenching, PdPor, OxySpot). To be noted: oxygen-saturated sample. The assay is classed as in vivo, Donryu rats.

Procedure: Animals with cancer were prepared by transplanting tumor cells in desired sites of laboratory animals such as, for example, rats, hamsters, rabbits or beagles.
Rats were bred for several days until tumors develop and then subjected to experiments under anesthesia (e.g., using Nembutal, diethyl ether or halothane anesthetic gas). Rats were intubated through the cervical trachea and ventilated under positive pressure by a respirator. A polyethylene catheter was inserted into a left carotid artery so that a distal end of the catheter is located at a position short of a bifurcation of the common iliac artery, and then backward cannulation was carried out to provide an administration rout of sample in the descending aorta.
The oxygen partial pressure in the tumor tissues may be determined by intravenously injecting a phosphorescent probe (palladium coproporphyrin (PdPor)), irradiating light, and monitoring a phosphorescence quenching time with an oxygen partial pressure monitor. PdPor is intravenously injected through a tail vein at 5-20 minutes before administration of the sample. […] The oxygen partial pressure in the tumor site of the right leg was measured at 5 to 30 points in air or an atmosphere containing 99% oxygen with a device for measurement of an oxygen partial pressure (e.g., OxySpot (Trademark) made by Medical System Corp.), and served as controls. […]

On to “bovine serum albumin: serum albumin, injected oxygen-saturated without porphyrin”, for which the “change in the oxygen partial pressure (PO2) in the tumor tissue” value was “no change”.

These data come from US20080081801A1, “PORPHYRIN OXYGEN INFUSION FOR INCREASING CONCENTRATIONS IN TUMOR TISSUES” (priority 2002, published 2008).
